Test results taken from paper PMC8533149 (Biomolecules, 2021).
Where two headings read alike, the source gives them in different places.

Experiments:
[1] = tested on: HIV-1 LTR-III G-quadruplex (FAM/TAMRA-labeled LTR-III); experiment: FRET melting assay, LTR-III G4; type: binding; conditions: for LTR-III (average): Table S12, average stabilization; for LTR III stabilization: Figure 7, stabilization group
Outline: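 Melting is followed by FAM fluorescence (ex 495/em 520 nm) while heating at 1 °C/min from 30 to 95 °C. Labelled ODN at 0.5 μM, pre-annealed in 10 mM Li cacodylate, 100 mM KCl, pH 7.4, mixed with ligand at 50:1 (25 μM), or 20:1 and 2:1 for titration. ΔTm is relative to the 0.25% DMSO buffer control.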

Cytotoxicity test = type: cell-based; conditions: human, MT4 cells (human T cell leukemia), Figure 7
Description: (§1) Green monkey kidney (Vero, Beach, FL, USA) cell line was maintained in 2 × Eagle MEM (“Chumakov FSC R&D IBP RAS”, Russia) with 5% FBS with L-glutamine, penicillin and streptomycin. […] HIV-1 strain NL4-3 was obtained via cell transfection with pNL4-3 3 (ARP2006, NIBSC, Potters Bar, UK).
(§2) MT4 cell suspensions were added to the wells with compound dilutions and DMSO control (approx. 2 × 10^4 cells per well). […] All experimental procedures were performed in two replicates and were repeated two to four times. Mean and SD were calculated with OriginPro 8 (OriginLab, St. Louis, MO, USA).

MT4 cells = experiment: Cytotoxicity test; type: cell-based; conditions: Table S12, nine days
Description: as §1, §2

[2] = tested on: Pu39 G4 (G-rich region of the P1 promoter of BCL-2); experiment: FRET melting assay, Pu39; type: binding, human; conditions: 50:1
Description: (§3) To evaluate stabilizing properties of the ligands in a complex with oligodeoxyribonucleotides (ODNs) melting with fluorescence registration was used. ODN (0.5 μM) (Table 1), labeled with 6-carboxyfluorescein (FAM) and 6-carboxytetramethylrhodamine (TAMRA) at the 5′- and 3′-end, respectively, were folded in lithium cacodylate buffer (10 mM, pH 7.4) with 100 mM KCl by heating at 95 °C for 5 min and gradually cooling to r.t. GFP chromophore analogs (5 mM solution in DMSO) were diluted with the same buffer to the final concentration of 25 μM and mixed with an equal volume of 0.5 μM ODN solution resulting in a molar ratio of 50:1 (total volume was 50 μL). For the titration experiments molar ratios of 20:1 and 2:1 were used. Samples were analyzed using DTprime qPCR system (DNA-Technology LLC, Moscow, Russia). Fluorescence was registered by detection of FAM emission at 520 nm upon excitation at 495 nm in the temperature range of 30–95 °C with 1 °C/min gradient. Tm was determined using the instrument software and ΔTm was calculated relative to ODN Tm in a buffer solution containing 0.25% (v/v) DMSO. The primary and secondary screening were carried out in singlicate and triplicate, respectively.
(§4) Initially we screened an in-house library of 440 synthetic GFP chromophore analogues for interaction with HIV-1 LTR-III sequence, which modulates HIV-1 promoter activity, using high-throughput screening (HTS) FRET melting assay (Table S1). […] We selected 11 compounds (Figure 2A), displaying stabilization in the range of 2.4–7.8 °C, and evaluated their ability to stabilize other G4-forming sequences, including human telomeric sequence Telo (one of the most common G4 structures in the human genome, having two conformations, Hybrid-1 and Hybrid-2 [36]) and model G4 […] (the G-rich Pu39 region of the P1 promoter of the oncogene BCL-2, an apoptosis regulator [37] with polymorphic conformational structure), as well as double stranded oligonucleotide (duplex) control sequence (Figure 2B, Table S2).

[3] = tested on: human telomeric sequence Telo G4; experiment: FRET melting assay, Telo; type: binding; conditions: 50:1
Description: as §3, §4

[4] = tested on: dsDNA (double stranded control sequence); experiment: FRET melting assay, duplex control; type: binding; conditions: 50:1
Description: as §3, §4

[5] = tested on: HIV-1 strain NL4-3 in MT4 cells; experiment: Cytopathic effect inhibition test; type: cell-based; conditions: HIV-1 NL4-3, MT4 cells
Description: Human T cell leukemia (MT4) cell line was maintained in RPMI-1640 (“Chumakov FSC R&D IBP RAS”, Moscow, Russia) with 10% of fetal bovine serum (FBS, Invitrogen, Waltham, MA, USA), L-glutamine and gentamicin. Green monkey kidney (Vero, Beach, FL, USA) cell line was maintained in 2 × Eagle MEM (“Chumakov FSC R&D IBP RAS”, Russia) with 5% FBS with L-glutamine, penicillin and streptomycin. Cell cultures were incubated in the present of 5% CO2 at 37 °C. HIV-1 strain NL4-3 was obtained via cell transfection with pNL4-3 3 (ARP2006, NIBSC, Potters Bar, UK).
Eight two-fold dilutions of stock solutions of the compounds in two replicates were prepared in RPMI-1640 (“Chumakov FSC R&D IBP RAS”, Russia). Compound dilutions were mixed with equal volumes of the virus suspension containing 100 CCID50 (50% tissue culture infectious dose). Control cells were treated with the same sequential concentrations of DMSO as in compound dilutions. Then, the MT4 cell suspension (approx. 2 × 10^4 cells per well) in RPMI-1640 containing 10% FBS (Invitrogen, South America) was added to experimental mixtures. A final concentration series started from 25 μM. Each experiment contained virus dose titration in the inoculate to assure the acceptable dose-range. After a nine-day incubation (5% CO2, at 37 °C), cytopathic effect (CPE) was visually accessed via microscope. EC50 values were calculated according to the Karber method. All experimental procedures were performed in two replicates and were repeated two to four times. Mean and SD were calculated with OriginPro 8 (OriginLab, St. Louis, MO, USA).

[6] = Table S1 primary screening, ligand:ODN 50:1, singlicate
[7] = Table S2, primary screening lead compounds
[8] = Table S3 primary screening of newly synthesized analogs, 50:1
[9] = Table S5, newly synthesized compounds
[10] = Human immunodeficiency virus 1, NL43, 216 h, Table S12, CPE, nine-day incubation, read-out: EC50
[11] = Human immunodeficiency virus 1, NL43, Figure 7, read-out: Antiviral activity EC50 (HIV)

## COc1ccc(/C=C2\N=C(CC(C)C)C(=O)N(O)C2=O)cc1 [M 813]
[1]; [6]
  LTR-III ΔTm: 2.9 °C
[1]
  LTR-III (average): 1,65 °C
Cytotoxicity test
  CC50 at 9 days: 0.5 ± 0.2 µM
MT4 cells
  СС50 (MT4): 0.46 ± 0.16 µM
[2]; [7]
  ΔTm Pu39: -1.5±1 °C
[3]; [7]
  ΔTm Telo: -0.6±0.9 °C
[4]; [7]
  ΔTm Duplex: 0±0.04 °C

## COc1cc(O)ccc1/C=C1N=C(/C=C/c2ccnc3ccccc23)N(C)C\1=O [ZS 331]
[1]
  LTR III stabilization: > 3 °C
  LTR-III (average): 3,7 °C
[1]; Table S2, primary screening lead compounds, 50:1
  ΔTm LTR III: 3.3±0.2 °C
Cytotoxicity test
  CC50 at 9 days: 1.2 ± 0.6 µM
MT4 cells
  СС50 (MT4): 1.17 ± 0.55 µM
[2]; [7]
  ΔTm Pu39: 0.8±0.2 °C
[3]; [7]
  ΔTm Telo: 2.5±0.3 °C
[4]; [7]
  ΔTm Duplex: -0.2±0.1 °C

## COc1cc(/C=C2N=C(/C=C/c3ccnc4ccccc34)N(C)C\2=O)cc(OC)c1O [N1196]
[1]
  LTR III stabilization: > 3 °C
[1]; LTR-III G4/ligand molar ratio 1:20
  ΔTm, titration: 7.9±0.4 °C
[1]; LTR-III G4/ligand molar ratio 1:50
  ΔTm, titration: 11.3±0.3 °C
[1]; [8]
  LTR-III ΔTm: 11.7 °C
Cytotoxicity test
  CC50 at 9 days: > 25 µM
MT4 cells
  СС50 (MT4): > 25 µM
[2]; [9]
  ΔTm Pu39: 7.2±0.4 °C
[3]; [9]
  ΔTm Telo: 8.7±0.2 °C
[4]; [9]
  ΔTm Duplex: 0.5±0.1 °C

## COc1cc(/C=C2N=C(/C=C/C=C/c3ccc(N(C)C)cc3)N(C)C\2=O)cc(OC)c1O [N1195]
[1]
  LTR III stabilization: > 3 °C
  LTR-III (average): 4,2 °C
[1]; [8]
  LTR-III ΔTm: 4.2 °C
Cytotoxicity test
  CC50 at 9 days: 6 ± 3 µM
MT4 cells
  СС50 (MT4): 5.9 ± 2.6 µM
[5]; [10]
  EC50: 3.78 ± 0.91 µM
[5]; [11]
  EC50: 3.8 ± 0.9 µM
[2]; [9]
  ΔTm Pu39: 1.8±0.1 °C
[3]; [9]
  ΔTm Telo: 0.9±0.3 °C
[4]; [9]
  ΔTm Duplex: 0.1±0.1 °C

## COc1ccc(OC)c(/C=C2N=C(/C=C/c3ccncc3)N(C)C\2=O)c1 [N 848.2]
[1]
  LTR III stabilization: > 3 °C
  LTR-III (average): 3,2 °C
[1]; [6]
  LTR-III ΔTm: 2.6 °C
Cytotoxicity test
  CC50 at 9 days: 6 ± 2 µM
MT4 cells
  СС50 (MT4): 6.4 ± 1.8 µM
[2]; [7]
  ΔTm Pu39: 0.1±0.4 °C
[3]; [7]
  ΔTm Telo: 2.1±0.01 °C
[4]; [7]
  ΔTm Duplex: 0.4±0.04 °C

## COc1c(O)ccc(/C=C2N=C(/C=C/c3ccncc3)N(C)C\2=O)c1OC [N 1068.2]
[1]
  LTR III stabilization: > 3 °C
  LTR-III (average): 6,9 °C
[1]; [6]
  LTR-III ΔTm: 7.1 °C
Cytotoxicity test
  CC50 at 9 days: 3 ± 1 µM
MT4 cells
  СС50 (MT4): 3.0 ± 1.0 µM
[5]; [10]
  EC50: 1.78 ± 0.38 µM
[5]; [11]
  EC50: 1.8 ± 0.4 µM
[5]; Table S12, CPE, nine-day incubation
  EC50: micromolar range
[2]; [7]
  ΔTm Pu39: 0±0.4 °C
[3]; [7]
  ΔTm Telo: 1.2±0.2 °C
[4]; [7]
  ΔTm Duplex: 0.1±0.04 °C

## COc1c(O)ccc(/C=C2N=C(/C=C/c3cc(Br)c(O)c(Br)c3)N(C)C\2=O)c1OC [N1199]
[1]
  LTR III stabilization: > 3 °C
  LTR-III (average): 4,3 °C
[1]; [8]
  LTR-III ΔTm: 4.3 °C
Cytotoxicity test
  CC50 at 9 days: 5 ± 3 µM
MT4 cells
  СС50 (MT4): 4.6 ± 2.5 µM
[5]; [10]
  EC50: 3.3 ± 1.1 µM
[5]; [11]
  EC50: 3 ± 1 µM
[2]; [9]
  ΔTm Pu39: 0±0.2 °C
[3]; [9]
  ΔTm Telo: 0.9±0.1 °C
[4]; [9]
  ΔTm Duplex: 0±0.1 °C

## CN1C(=O)/C(=C/c2cc[n+](C)cc2)N=C1c1ccccc1 [M 903.2]
[1]; [6]
  LTR-III ΔTm: 2.8 °C
[1]
  LTR-III (average): 2,3 °C
Cytotoxicity test
  CC50 at 9 days: > 25 µM
MT4 cells
  СС50 (MT4): > 25 µM
[2]; [7]
  ΔTm Pu39: -1±0.5 °C
[3]; [7]
  ΔTm Telo: 0.4±0.1 °C
[4]; [7]
  ΔTm Duplex: 0.1±0.07 °C
